The results in this text go back to US6054315A, “Method for making activated neutrophils recognizable to macrophages” (The Board of Regents of the University of Oklahoma, priority 1997, dated 2000).

For assay [1], the target named is native galectin-1 (native lectin) (Cricetulus griseus, UniProt P48538). Briefly: Equilibrium dialysis, binding of N-acetyllactosamine. Particulars: stated as similar affinity to the mutants. Details: species or system hamster. Here is the method:
(§1) To investigate whether dimerization of the galectin-1 is required to induce apoptosis, mutated forms of galectin-1 were prepared. Recombinant hamster galectin-1, which is highly homologous in sequence with bovine and human galectin-1 with 100% identity at the N- and C-termini positions was used. The protein was prepared as described in Cho and Cummings, 1995b, J. Biol. Chem., 270:5198-5206, ibid, J. Biolchem, 270:5207, 1995. This protein (monomeric or dimeric) contains a stabilizing mutation in which Cys at the 2nd residue was converted to Ser.
Specific mutations were created in the N- and C-termini of hamster galectin-1, as indicated in FIG. 3 and as described in further detail in Cho and Cummings, Biochemistry, 35:13081, 1996, which is hereby incorporated by reference herein in its entirety. C2S-Gal-1 contains a single replacement of Cys-2 to Ser. V5D-Gal-1 contains a single mutation of Val-5 to Asp. N-Gal-1 contains disruptions of three hydrophobic amino acids at the N-terminus. We also made another mutant construct, termed N/C-Gal-1, which contained the amino terminal changes of N-Gal-1 in addition to multiple changes in specific hydrophobic amino acids at the C-terminus (data not shown). All mutants, except for C2S-Gal-1, behaved as monomers in size exclusion HPLC and native gel electrophoresis. […]
On the technique in general: Equilibrium dialysis compares concentrations on both sides of a semipermeable membrane.

Assay [2] deals with T1, hamster galectin-1 mutant C2S-Gal-1 (Cys-2 to Ser) (Cricetulus griseus, UniProt P48538, C3S).
T1 construct: made in house; host or cells: E. coli (for the recombinant CHO galectin-1)
T1 sequence (P48538 whole entry C3S): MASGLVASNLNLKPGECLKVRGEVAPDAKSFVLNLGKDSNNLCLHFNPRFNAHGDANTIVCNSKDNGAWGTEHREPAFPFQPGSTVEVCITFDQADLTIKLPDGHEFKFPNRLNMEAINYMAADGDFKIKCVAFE
Described as above. Particulars: stated as similar affinity to the mutants. Here is the method: as §1
(§2) Specific mutations were created in the N- and C-termini of hamster galectin-1, as indicated in FIG. 3 and as described in further detail in Cho and Cummings, Biochemistry, 35:13081, 1996, which is hereby incorporated by reference herein in its entirety. C2S-Gal-1 contains a single replacement of Cys-2 to Ser. V5D-Gal-1 contains a single mutation of Val-5 to Asp. N-Gal-1 contains disruptions of three hydrophobic amino acids at the N-terminus. We also made another mutant construct, termed N/C-Gal-1, which contained the amino terminal changes of N-Gal-1 in addition to multiple changes in specific hydrophobic amino acids at the C-terminus (data not shown). All mutants, except for C2S-Gal-1, behaved as monomers in size exclusion HPLC and native gel electrophoresis. C2S-Gal-1 was indistinguishable from the native lectin in its ability to undergo monomer-dimer equilibrium and in its carbohydrate-binding affinity. […] However, in equilibrium dialysis N-Gal-1 and V5D-Gal-1 bound N-acetyllactosamine with similar affinity (Kd 90 μM) to that of the C2S-Gal-1 and the native lectin. […] N/C-Gal-1 was non-functional.

The target of assay [3] is T2, hamster galectin-1 mutant N-Gal-1 (monomeric; disruptions of three hydrophobic amino acids at the N-terminus) (Cricetulus griseus, UniProt P48538, A7S/C3S/L5Q/V6D).
T2 construct: made in house; host or cells: E. coli (for the recombinant CHO galectin-1)
T2 sequence (P48538 2-135 C3S/L5Q/V6D/A7S limits assumed): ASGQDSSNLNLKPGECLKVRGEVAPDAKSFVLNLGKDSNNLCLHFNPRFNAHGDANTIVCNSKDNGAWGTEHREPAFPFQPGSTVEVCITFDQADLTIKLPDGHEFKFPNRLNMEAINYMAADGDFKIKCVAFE
Described as above. The protocol:
as §1, §2

The target of assay [4] is T3, hamster galectin-1 mutant V5D-Gal-1 (Val-5 to Asp) (Cricetulus griseus, UniProt P48538, V6D).
T3 construct: made in house; host or cells: E. coli (for the recombinant CHO galectin-1)
T3 sequence (P48538 whole entry V6D): as the sequence (P48538 whole entry C3S) above, with S3C, V6D counted along it
The assay is described as above. The protocol: as §1, §2

For assay [5], the target named is T4, recombinant galectin-1 (Cys at the 2nd residue converted to Ser) (Cricetulus griseus, UniProt P48538, C3S).
T4 construct: made in house; host or cells: E. coli (for the recombinant CHO galectin-1)
T4 sequence (P48538 whole entry C3S): as the sequence (P48538 whole entry C3S) above
Briefly: Galectin-1-induced apoptosis of activated neutrophils and desialylated HL-60 cells (annexin V), inhibition by sugars. In kind it is cell-based, hamster. As to conditions: galectin-1 10 μM; lactose 10 mM in the method. Here is the method: Resting or activated neutrophils (3×10^6 cells) were treated with galectin-1 (10 μM) in 0.5 ml of HBSS (lacking Ca^2+ /Mg^2+ and containing 0.5% human albumin) for 90 minutes at 37° C. in the presence or absence of 10 mM lactose. HL-60 cells and desialylated HL-60 cells (3×10^6 cells/0.5 ml) were treated with galectin-1 (10 μM) for 20 hours at 37° C. in the presence or absence of 10 mM lactose. At the end of the incubations all cells were treated with 10 mM lactose in PBS to disaggregate the cells. […]
(§3) Annexin V is a protein that recognizes phosphatidyl serine (PS) and is a convenient marker for apoptosis of neutrophils and other cells (S. J. Martin, C. P. Reutelingsperger, A. J. McGahon, J. A. Rader, R. C. van Schie, D. M. LaFace and D. R. Green D R, J. Exp. Med., 182:1545, 1995; C. H. Homburg, M. de Haas, A. E. von dem Borne, A. J. Verhoeven, C. P. Reutelingsperger and D. Roos, Blood, 85:532, 1995; I. Vermes, C. Haanen, H. Steffens-Nakken, and C. Reutelingsperger, J. Immunol. Methods, 184:39, 1995; Z. Darzynkiewicz, G. Juan, X. Li, W. Gorczyca, T. Murakami, and F. Traganos, Cytometry 27:1, 1997). […] Within 90 minutes following treatment with 10 μM galectin-1, 36% of the activated neutrophils undergo apoptosis, as determined by their staining with annexin V (FIG. 2A). […]

The target of assay [6] is T4, recombinant galectin-1 (Cys at the 2nd residue converted to Ser). In words: Galectin-1 agglutination of activated neutrophils and desialylated HL-60 cells, inhibition by sugars. Format: cell-based, hamster. The protocol:
In all cases cell binding of galectin-1 to cells was inhibited by 10 mM lactose, a known inhibitor of galectin-1 (FIG. 1), but not by 10 mM maltose, an isomeric, non-inhibitory analog (data not shown). We noted that both activated neutrophils and desialylated HL-60 cells are strongly agglutinated by galectin-1, whereas resting neutrophils and HL-60 cells are not appreciably agglutinated, which further underscores the profound differences in surface phenotypes between resting and activated neutrophils.
as §3

Assay [7] shares this target. Briefly: Binding of biotinylated galectin-1 to activated neutrophils and desialylated HL-60 cells (flow cytometry), inhibition by sugars. Format: cell-based, hamster. As to conditions: sugar at 10 mM; galectin-1 10 μg/ml, 30 minutes on ice. From the text: Isolated neutrophils were activated by treatment with PMA and HL-60 cells were desialylated by treatment with neuraminidase. Heparinized blood was obtained from normal donors. Neutrophils were isolated by dextran sedimentation, hypotonic lysis, and density gradient centrifugation on Histopaque-1077 (Sigma), as described [G. A. Zimmerman, T. M. McIntyre, and S. M. Prescott, J. Clin. Invest., 76:2235, 1985]. Typically, the polymorphonuclear cells were >90% neutrophils by Wright-Giemsa staining and >90% CD16^+ as assessed by flow cytometry. Neutrophils were activated by treatment with phorbol myristate acetate (PMA) (Sigma) (0.5 μM) for 20 minutes at 37° C. in RPMI containing 20% FCS (0.5 ml). HL-60 cells were routinely maintained in RPMI containing 20% FCS. Desialylated HL-60 cells were prepared by treating 3×10^7 cells with Arthrobacter ureafaciens neuraminidase (Sigma) (100 mU) in 500 μl of RPMI containing 20% FCS for 1 hour at 37° C. […] The washed cells were incubated with FITC-streptavidin (1:100 dilution) (Sigma), washed once with PBS, and analyzed by flow cytometry. […] "Unstained" indicates fluorescence of either resting neutrophils or HL-60 cells incubated in the absence of either MAL or galectin-1. "Control" indicates fluorescence of either activated neutrophils or desialylated HL-60 cells incubated with galectin-1 in the presence of 10 mM lactose. […]

Sequence of native galectin-1 (native lectin) (P48538 2-135): as the sequence (P48538 2-135 C3S/L5Q/V6D/A7S limits assumed) above, with S2C, Q4L, D5V, S6A counted along it

`CC(=O)N[C@H]1C(O)O[C@H](CO)[C@@H](O[C@@H]2O[C@H](CO)[C@H](O)[C@H](O)[C@H]2O)[C@@H]1O` (stereo partly shown) [N-acetyllactosamine]: the Kd – broadly, a measure of binding affinity in units of concentration – in assay [1] is approximately 90 µM; in assay [2] it was approximately 90 µM; in assay [3], 90 µM; in assay [4], 90 µM.
For `OC[C@H]1O[C@@H](O[C@H]2[C@H](O)[C@@H](O)C(O)O[C@@H]2CO)[C@H](O)[C@@H](O)[C@H]1O` (stereo partly shown) [lactose], the “inhibition of apoptosis-inducing activity of galectin-1” value in assay [5] is “inhibited”. Also, in assay [6], the “inhibition of cell agglutinating activity of galectin-1” value is recorded as “inhibited”. For the same compound, in assay [7], the “inhibition of binding of galectin-1 to cells” value was “inhibited”.
On to `OC[C@H]1O[C@H](O[C@H]2[C@H](O)[C@@H](O)[C@H](O)O[C@@H]2CO)[C@H](O)[C@@H](O)[C@@H]1O` [maltose], for which the “inhibition of apoptosis-inducing activity of galectin-1” value in assay [5] is given as “not”. Moreover, in assay [6], the “inhibition of cell agglutinating activity of galectin-1” value was “not”. The “inhibition of binding of galectin-1 to cells” value in assay [7] is reported as “not”.
